In PMC3747596 (PLoS ONE, 2013):
Read-outs that look alike come from different tables or passages of the source.

Columns and labels:
[1] = target: T1, 5-HT1a (Homo sapiens, UniProt P08908); assay: Radioligand displacement, 5-HT1a; assay type: binding
T1 sequence (P08908 1-422): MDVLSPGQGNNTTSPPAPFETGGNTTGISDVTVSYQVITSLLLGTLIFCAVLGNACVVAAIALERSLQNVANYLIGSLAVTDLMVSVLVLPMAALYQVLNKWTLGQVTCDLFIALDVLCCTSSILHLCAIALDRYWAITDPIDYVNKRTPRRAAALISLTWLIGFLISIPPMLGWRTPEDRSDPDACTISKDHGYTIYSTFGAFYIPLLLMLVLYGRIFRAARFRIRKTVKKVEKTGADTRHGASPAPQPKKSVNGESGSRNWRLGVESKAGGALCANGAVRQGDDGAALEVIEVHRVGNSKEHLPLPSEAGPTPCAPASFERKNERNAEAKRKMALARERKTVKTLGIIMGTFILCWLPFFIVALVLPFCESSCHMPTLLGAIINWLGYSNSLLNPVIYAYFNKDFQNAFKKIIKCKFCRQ

[2] = target: 5-HT1b (Homo sapiens, UniProt P28222); assay: Radioligand displacement, 5-HT1b; assay type: binding
[3] = target: 5-HT1e (Homo sapiens, UniProt P28566); assay: Radioligand displacement, 5-HT1e; assay type: binding
[4] = target: T2, α1A-adrenoceptor (α1A-AR) (Homo sapiens, UniProt P35348); assay: Radioligand displacement, α1A; assay type: binding
T2 sequence (P35348 1-466): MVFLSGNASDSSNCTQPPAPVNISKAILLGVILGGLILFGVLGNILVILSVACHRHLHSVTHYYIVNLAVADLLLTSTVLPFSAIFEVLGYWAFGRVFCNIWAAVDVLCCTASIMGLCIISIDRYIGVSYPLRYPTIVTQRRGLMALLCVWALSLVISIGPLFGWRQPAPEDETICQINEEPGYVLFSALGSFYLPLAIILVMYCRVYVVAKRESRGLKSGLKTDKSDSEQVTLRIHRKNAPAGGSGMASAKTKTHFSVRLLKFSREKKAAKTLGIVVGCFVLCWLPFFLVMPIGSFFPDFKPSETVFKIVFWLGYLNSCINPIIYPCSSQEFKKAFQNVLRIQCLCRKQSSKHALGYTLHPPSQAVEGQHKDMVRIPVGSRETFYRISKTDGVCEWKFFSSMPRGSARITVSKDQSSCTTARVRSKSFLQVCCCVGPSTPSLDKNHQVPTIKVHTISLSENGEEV

[5] = target: T3, α1D (Homo sapiens, UniProt P25100); assay: Radioligand displacement, α1D; assay type: binding
T3 sequence (P25100 1-572): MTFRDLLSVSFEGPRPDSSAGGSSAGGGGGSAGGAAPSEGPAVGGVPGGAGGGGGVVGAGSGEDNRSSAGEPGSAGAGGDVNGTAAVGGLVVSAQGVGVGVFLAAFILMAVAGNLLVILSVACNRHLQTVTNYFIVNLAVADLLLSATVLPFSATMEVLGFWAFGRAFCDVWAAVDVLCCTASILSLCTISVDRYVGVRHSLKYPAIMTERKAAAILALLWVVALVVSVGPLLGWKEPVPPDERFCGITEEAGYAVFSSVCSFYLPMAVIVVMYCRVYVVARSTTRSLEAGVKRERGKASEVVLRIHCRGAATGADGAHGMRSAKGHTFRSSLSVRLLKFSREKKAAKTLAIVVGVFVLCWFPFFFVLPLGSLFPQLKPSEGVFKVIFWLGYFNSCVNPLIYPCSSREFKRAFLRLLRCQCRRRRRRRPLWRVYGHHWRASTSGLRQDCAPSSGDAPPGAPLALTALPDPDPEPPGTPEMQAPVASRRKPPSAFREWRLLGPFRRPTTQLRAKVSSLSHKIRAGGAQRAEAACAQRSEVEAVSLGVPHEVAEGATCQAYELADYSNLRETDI

[6] = target: T4, α2B (Homo sapiens, UniProt P18089); assay: Radioligand displacement, α2B; assay type: binding
T4 sequence (P18089 1-450): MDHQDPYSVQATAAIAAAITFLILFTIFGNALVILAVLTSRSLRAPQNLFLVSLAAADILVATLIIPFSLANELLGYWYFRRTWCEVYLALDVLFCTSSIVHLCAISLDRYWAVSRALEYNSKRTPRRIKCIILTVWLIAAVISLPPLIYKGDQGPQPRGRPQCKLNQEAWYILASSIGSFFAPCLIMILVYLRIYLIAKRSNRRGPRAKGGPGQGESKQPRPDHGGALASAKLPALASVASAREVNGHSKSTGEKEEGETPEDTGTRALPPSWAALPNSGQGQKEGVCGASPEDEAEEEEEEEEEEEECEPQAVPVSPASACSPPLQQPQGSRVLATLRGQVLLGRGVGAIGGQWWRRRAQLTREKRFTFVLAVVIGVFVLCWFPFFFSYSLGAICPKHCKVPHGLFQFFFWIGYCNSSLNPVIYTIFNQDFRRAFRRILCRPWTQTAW

[7] = target: β3 (Homo sapiens, UniProt P13945); assay: Radioligand displacement, β3; assay type: binding
[8] = target: D2 (Homo sapiens, UniProt P14416); assay: Radioligand displacement, D2; assay type: binding
[9] = target: D5 (Homo sapiens, UniProt P21918); assay: Radioligand displacement, D5; assay type: binding
[10] = target: GABAA (BZP); assay: Radioligand displacement, GABAA (BZP); assay type: binding; details: [3H] radioligand Flunitrazepam; Rat, Brain
[11] = target: M2 (Homo sapiens, UniProt P08172); assay: biochemical; assay type: binding
[12] = target: M4 (Homo sapiens, UniProt P08173); assay: Radioligand displacement, M4; assay type: binding
[13] = target: noradrenaline (norepinephrine) transporter (NET) (Homo sapiens, UniProt P23975); assay: Radioligand displacement, NET; assay type: binding
[14] = target: σ1 (Rattus norvegicus, UniProt Q9R0C9); assay: Radioligand displacement, σ1; assay type: binding
[15] = target: 5-HT1d (Homo sapiens, UniProt P28221); assay: Radioligand displacement, 5-HT1d
[16] = Caco-2 cell monolayer permeation; details: human, Caco-2, pH 7.4
[17] = [3H] radioligand 8-OH-DPAT, Human, Cloned
[18] = Ki, [3H] radioligand Prazosin, Human, Cloned
[19] = [3H] radioligand Rauwolscine, Human, Cloned
[20] = K i, D5, radioligand displacement (Table 1)
[21] = Ki, [3H] radioligand SCH23390, Human, Cloned
[22] = Ki, [3H] radioligand QNB, Human, Cloned
[23] = Ki, [3H] radioligand GR125743, Human, Cloned
[24] = [3H] radioligand QNB, Human, Cloned, read-out: Ki

Chain of 5-HT1d (P28221 whole entry): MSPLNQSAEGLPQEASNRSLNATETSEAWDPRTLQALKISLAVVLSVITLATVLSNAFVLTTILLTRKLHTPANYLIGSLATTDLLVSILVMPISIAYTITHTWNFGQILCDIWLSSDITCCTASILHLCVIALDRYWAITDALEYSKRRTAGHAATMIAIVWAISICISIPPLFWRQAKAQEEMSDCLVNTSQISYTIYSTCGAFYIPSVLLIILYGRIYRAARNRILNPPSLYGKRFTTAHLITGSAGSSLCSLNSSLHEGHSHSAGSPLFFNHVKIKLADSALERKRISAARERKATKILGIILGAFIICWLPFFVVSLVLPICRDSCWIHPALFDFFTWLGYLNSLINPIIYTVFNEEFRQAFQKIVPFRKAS
Chain of 5-HT1b (P28222 whole entry): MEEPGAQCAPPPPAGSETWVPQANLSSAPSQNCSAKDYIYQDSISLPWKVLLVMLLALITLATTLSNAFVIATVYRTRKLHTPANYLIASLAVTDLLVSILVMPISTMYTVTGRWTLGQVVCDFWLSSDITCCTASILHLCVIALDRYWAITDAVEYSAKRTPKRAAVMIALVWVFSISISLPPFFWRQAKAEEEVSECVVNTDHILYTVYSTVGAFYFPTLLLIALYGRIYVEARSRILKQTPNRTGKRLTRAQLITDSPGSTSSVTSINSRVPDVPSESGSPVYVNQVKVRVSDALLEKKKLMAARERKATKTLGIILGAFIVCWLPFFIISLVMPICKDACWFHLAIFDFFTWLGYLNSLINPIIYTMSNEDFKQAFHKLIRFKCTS
Chain of σ1 (Q9R0C9 whole entry): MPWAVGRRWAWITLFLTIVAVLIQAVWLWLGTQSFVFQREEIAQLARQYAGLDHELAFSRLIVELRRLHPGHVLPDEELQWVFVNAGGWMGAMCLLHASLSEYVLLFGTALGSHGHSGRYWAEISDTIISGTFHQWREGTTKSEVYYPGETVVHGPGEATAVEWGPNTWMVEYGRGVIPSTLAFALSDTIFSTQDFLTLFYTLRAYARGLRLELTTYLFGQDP
Chain of 5-HT1e (P28566 whole entry): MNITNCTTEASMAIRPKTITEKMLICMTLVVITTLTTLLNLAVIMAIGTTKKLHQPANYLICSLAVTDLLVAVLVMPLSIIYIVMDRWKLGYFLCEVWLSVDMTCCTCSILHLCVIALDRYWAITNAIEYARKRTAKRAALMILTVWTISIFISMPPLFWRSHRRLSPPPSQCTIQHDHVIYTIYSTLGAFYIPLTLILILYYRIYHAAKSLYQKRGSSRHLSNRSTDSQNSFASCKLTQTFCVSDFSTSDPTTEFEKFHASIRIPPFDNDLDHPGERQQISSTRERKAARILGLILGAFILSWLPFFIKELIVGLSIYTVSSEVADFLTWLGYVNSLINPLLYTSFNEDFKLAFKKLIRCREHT
Chain of noradrenaline (norepinephrine) transporter (NET) (P23975 whole entry): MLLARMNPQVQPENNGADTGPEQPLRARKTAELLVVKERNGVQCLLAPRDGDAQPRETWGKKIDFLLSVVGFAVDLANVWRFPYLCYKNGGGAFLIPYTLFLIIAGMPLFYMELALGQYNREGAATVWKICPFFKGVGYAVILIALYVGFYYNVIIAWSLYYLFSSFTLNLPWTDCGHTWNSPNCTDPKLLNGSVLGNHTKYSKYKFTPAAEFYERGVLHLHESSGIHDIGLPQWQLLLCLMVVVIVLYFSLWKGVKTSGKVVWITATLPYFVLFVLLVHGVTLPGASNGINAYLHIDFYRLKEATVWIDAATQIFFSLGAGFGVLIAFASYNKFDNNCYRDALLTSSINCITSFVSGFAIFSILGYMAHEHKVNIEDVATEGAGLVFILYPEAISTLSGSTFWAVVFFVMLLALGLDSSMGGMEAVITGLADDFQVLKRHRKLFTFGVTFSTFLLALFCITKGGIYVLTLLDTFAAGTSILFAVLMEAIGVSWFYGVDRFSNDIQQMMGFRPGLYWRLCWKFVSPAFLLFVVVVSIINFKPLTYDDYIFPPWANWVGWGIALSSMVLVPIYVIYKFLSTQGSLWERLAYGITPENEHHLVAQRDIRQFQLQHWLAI
Chain of β3 (P13945 whole entry): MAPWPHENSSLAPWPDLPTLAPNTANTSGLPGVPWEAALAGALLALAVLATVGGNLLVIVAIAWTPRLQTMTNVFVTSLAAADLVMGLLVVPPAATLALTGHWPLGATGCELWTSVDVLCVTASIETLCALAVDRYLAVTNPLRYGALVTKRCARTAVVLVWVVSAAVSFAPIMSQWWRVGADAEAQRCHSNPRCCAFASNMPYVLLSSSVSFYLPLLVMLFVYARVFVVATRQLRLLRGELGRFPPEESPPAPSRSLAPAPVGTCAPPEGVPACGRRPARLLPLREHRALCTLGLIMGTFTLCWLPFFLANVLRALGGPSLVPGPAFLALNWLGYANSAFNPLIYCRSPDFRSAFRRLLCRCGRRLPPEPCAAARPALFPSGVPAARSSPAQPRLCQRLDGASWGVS
Chain of D2 (P14416 whole entry): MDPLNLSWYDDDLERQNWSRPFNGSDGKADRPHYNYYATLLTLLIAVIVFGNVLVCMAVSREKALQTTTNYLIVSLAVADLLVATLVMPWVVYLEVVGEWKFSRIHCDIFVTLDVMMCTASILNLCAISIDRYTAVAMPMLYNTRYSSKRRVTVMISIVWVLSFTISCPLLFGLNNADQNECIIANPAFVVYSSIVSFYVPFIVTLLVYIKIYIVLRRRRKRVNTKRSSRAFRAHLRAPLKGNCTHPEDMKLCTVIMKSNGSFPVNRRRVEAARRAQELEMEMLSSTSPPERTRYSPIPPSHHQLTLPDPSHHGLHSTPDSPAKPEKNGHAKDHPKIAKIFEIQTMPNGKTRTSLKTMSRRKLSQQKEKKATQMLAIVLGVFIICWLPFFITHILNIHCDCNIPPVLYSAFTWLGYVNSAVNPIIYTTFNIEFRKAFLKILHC
Chain of D5 (P21918 whole entry): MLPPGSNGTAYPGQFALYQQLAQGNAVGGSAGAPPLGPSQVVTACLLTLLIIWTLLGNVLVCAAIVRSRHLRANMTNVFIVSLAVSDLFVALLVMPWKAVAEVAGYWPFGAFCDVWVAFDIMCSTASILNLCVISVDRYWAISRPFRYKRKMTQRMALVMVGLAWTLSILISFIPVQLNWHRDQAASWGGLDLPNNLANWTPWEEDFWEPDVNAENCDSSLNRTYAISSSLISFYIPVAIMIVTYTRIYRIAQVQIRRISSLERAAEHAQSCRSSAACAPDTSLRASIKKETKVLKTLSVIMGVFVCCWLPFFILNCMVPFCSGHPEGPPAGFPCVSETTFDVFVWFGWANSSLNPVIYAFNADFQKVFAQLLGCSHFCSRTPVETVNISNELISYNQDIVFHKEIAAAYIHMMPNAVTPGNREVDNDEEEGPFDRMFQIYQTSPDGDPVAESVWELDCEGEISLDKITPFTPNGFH
Chain of M4 (P08173 whole entry): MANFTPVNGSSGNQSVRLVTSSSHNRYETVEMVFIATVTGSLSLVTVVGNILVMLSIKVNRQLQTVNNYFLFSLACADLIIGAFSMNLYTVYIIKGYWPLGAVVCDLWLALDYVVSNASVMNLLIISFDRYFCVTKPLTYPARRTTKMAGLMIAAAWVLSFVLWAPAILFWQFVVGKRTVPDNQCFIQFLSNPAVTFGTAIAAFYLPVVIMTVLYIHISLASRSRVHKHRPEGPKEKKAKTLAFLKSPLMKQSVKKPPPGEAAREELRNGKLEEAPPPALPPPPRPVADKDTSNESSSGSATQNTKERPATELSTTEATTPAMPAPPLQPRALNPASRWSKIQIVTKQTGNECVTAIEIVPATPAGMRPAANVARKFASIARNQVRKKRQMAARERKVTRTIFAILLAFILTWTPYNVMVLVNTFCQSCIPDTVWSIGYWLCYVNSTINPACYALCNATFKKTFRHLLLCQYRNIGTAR
Chain of M2 (P08172 whole entry): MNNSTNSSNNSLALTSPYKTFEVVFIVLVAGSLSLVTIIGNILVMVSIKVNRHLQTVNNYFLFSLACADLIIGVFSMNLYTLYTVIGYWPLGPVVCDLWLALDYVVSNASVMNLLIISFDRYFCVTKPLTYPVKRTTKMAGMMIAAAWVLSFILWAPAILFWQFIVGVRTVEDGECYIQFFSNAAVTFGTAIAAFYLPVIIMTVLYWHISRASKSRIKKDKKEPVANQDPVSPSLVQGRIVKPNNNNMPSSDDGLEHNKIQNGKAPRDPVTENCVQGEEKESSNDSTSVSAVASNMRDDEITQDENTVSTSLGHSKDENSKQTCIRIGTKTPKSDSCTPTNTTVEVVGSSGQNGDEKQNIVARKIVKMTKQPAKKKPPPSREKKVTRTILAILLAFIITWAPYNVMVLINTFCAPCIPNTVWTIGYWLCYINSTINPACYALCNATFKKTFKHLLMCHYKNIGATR

Compound	Ki [1, 17]	Ki [2]	Ki [3]	Ki [4, 18]	Ki [5]	Ki [6, 19]	Ki [7]	Ki [8]	Ki [9, 20]	Ki [9, 21]	Ki [10]	Ki [11, 22]	Ki [12]	Ki [13]	Ki [14]	Ki [15, 23]	Papp A→B at 120 min [16]	Papp B→A at 120 min [16]	other results
Oc1ccc2c3c1O[C@H]1c4[nH]c5c(c4C[C@@]4(O)[C@@H](C2)N(CC2CC2)CC[C@]314)C[C@@]1(O)[C@H]2Cc3ccc(O)c4c3[C@@]1(CCN2CC1CC1)[C@H]5O4 [nor-BNI, Nor-binaltorphimine]	1.11 µM	≥ 10 µM	≥ 10 µM	≥ 10 µM	≥ 10 µM	1.46 µM	≥ 10 µM	≥ 10 µM	3.9 µM	3.92 µM	≥ 10 µM	≥ 10 µM	≥ 10 µM	≥ 10 µM	≥ 10 µM	1.13 µM	51 ×10⁻⁶ cm/s	310 ×10⁻⁶ cm/s	Ki ([1]; 5-HT1a, radioligand displacement (Table 1)): 1.1 µM; Ki ([1]; binding curve File S1, 5-HT1A Receptor, [3H]8-OH-DPAT (0.5 nM), Standard Binding Buffer): 1.11 µM; Ki ([6]; binding curve File S1, Alpha2B Receptor, [125I]Clonidine (0.12 nM), Alpha2 Binding Buffer): 1.46 µM; Ki ([6]; α2B, radioligand displacement (Table 1)): 1.5 µM; Ki ([9]; Ki, binding curve File S1, Dopamine5 Receptor, [3H]SCH23390 (1.2 nM), Dopamine Binding Buffer): 3.92 µM; Ki ([15]; K i, 5-HT1d, radioligand displacement (Table 1)): 1.1 µM
N=C(N)Nc1ccc2[nH]c3c(c2c1)C[C@@]1(O)[C@H]2Cc4ccc(O)c5c4[C@@]1(CCN2CC1CC1)[C@H]3O5 [GNTI, 5′-guanidinonaltrindole]	≥ 10 µM	≥ 10 µM	≥ 10 µM	9.5 µM	≥ 10 µM	≥ 10 µM	≥ 10 µM	≥ 10 µM	8.2 µM	8.18 µM	≥ 10 µM	5.37 µM	≥ 10 µM	≥ 10 µM	≥ 10 µM	≥ 10 µM	88 ×10⁻⁶ cm/s	270 ×10⁻⁶ cm/s	modulation of the displacement of [125I]HEAT by noradrenaline ([4]; 10 µM GNTI): did not detectably modulate; Ki ([4]; Ki, binding curve File S1, Alpha1A Receptor, [125I]HEAT (0.03 nM), for 14674 the curve marked old): 9.47 µM; Ki ([11]; Ki, binding curve File S1, M2 Receptor, [3H]QNB (0.1 nM), Muscarinic Binding Buffer): 5.36 µM; Ki ([11]; M2, radioligand displacement (Table 1), read-out: K i): 5.4 µM; efflux ratio at 120 min [16]: 3.1
CC(C)[C@@H](CN1CC[C@@](C)(c2cccc(O)c2)[C@@H](C)C1)NC(=O)[C@H]1Cc2ccc(O)cc2CN1 [JDTic]	≥ 10 µM					≥ 10 µM					≥ 10 µM						60 ×10⁻⁶ cm/s	310 ×10⁻⁶ cm/s	Ki ([2]; [3H] radioligand GR125743, Human, Cloned, read-out: Ki): ≥ 10 µM; Ki ([3]; [3H] radioligand 5HT, Human, Cloned, read-out: Ki): ≥ 10 µM; Ki ([4]; read-out: Ki): ≥ 10 µM; Ki ([5]; read-out: Ki): ≥ 10 µM; Ki ([7]; [3H] radioligand CGP12177, Human, Cloned, read-out: Ki): ≥ 10 µM; Ki ([8]; [3H] radioligand N-Methylspiperone, Human, Cloned, read-out: Ki): ≥ 10 µM; Ki ([9]; [3H] radioligand SCH23390, Human, Cloned, read-out: Ki): ≥ 10 µM; Ki [11, 24]: ≥ 10 µM; Ki ([11]; binding curve File S1, M2 Receptor, [3H]QNB (0.1 nM), Muscarinic Binding Buffer, read-out: Ki): > 10 µM; Ki [12, 24]: ≥ 10 µM; Ki ([13]; NET, versus [3H]nisoxetine (Table 1), read-out: K i): 0.054 µM; Ki ([14]; [3H] radioligand Pentazocine(+), Rat, Brain, read-out: Ki): 1.88 µM; Ki ([14]; binding curve File S1, Sigma-1 Receptor, [3H]Pentazocine (3.0 nM), Sigma Binding Buffer, read-out: Ki): 1.88 µM; Ki ([14]; σ1, radioligand displacement (Table 1), read-out: K i): 1.9 µM; Ki [15]: ≥ 10 µM
